The record followed here is patent US7879876B2, “Sulfonamide derivatives and use thereof for the modulation of metalloproteinases” (Merck Serono SA, priority 2005, dated 2011).

Common to all, as to type: biochemical
The target of one experiment is MMP-14 (Homo sapiens, UniProt P50281). In words: MMP-14 enzyme inhibition assay (coumarin-labelled peptide substrate). The following applies: read-out: percentage inhibition MMP14. An outline of the steps:
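Recombinant human enzyme, APMA-activated if necessary, was incubated with McaPLGLDpaAR substrate and compound (10 concentrations in duplicate, 100 μM to 5.1 nM) in Tris-HCl pH 7.6 with NaCl, CaCl2 and Brij 35 for 2 h at 37 °C. Fluorescence was read at 320/405 nm, and IC50 was taken from a four-parameter fit.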

In experiment [1] the target is 92 kDa gelatinase (MMP-9) (Homo sapiens, UniProt P14780). In words: MMP-9 enzyme inhibition assay (coumarin-labeled peptide substrate). The following applies: @ 5 μM; read-out: percentage inhibition MMP9. An outline of the steps: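 Recombinant human MMP-9 (APMA-activated if needed) was assayed in 100 mM Tris-HCl pH 7.6, 100 mM NaCl, 10 mM CaCl2, 0.05% Brij 35, with McaPLGLDpaAR substrate at 37° C. for 2 h. Fluorescence was read at ex 320/em 405 nm over ten 3-fold compound doses (100 μM–5.1 nM) in duplicate. IC50 came from a four-parameter fit.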

A further experiment concerns the target human ADAM17 (TACE) (Homo sapiens, UniProt P78536). Kind of experiment: TACE enzyme inhibition assay. The gist of the method: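 Recombinant human ADAM17 was run in 20 mM HEPES pH 7.5 with 0.05% Brij 35, using Mca/Dnp-TNF-alpha(−5 to +6) amide substrate (5 μM solution), for 1.5 h at room temperature. Fluorescence (ex 355/em 405 nm) was read unstopped over ten concentrations (100 μM–0.01 nM). IC50 came from a four-parameter fit, rounded to one significant figure.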

Chain of human ADAM17 (TACE) (P78536 215-824): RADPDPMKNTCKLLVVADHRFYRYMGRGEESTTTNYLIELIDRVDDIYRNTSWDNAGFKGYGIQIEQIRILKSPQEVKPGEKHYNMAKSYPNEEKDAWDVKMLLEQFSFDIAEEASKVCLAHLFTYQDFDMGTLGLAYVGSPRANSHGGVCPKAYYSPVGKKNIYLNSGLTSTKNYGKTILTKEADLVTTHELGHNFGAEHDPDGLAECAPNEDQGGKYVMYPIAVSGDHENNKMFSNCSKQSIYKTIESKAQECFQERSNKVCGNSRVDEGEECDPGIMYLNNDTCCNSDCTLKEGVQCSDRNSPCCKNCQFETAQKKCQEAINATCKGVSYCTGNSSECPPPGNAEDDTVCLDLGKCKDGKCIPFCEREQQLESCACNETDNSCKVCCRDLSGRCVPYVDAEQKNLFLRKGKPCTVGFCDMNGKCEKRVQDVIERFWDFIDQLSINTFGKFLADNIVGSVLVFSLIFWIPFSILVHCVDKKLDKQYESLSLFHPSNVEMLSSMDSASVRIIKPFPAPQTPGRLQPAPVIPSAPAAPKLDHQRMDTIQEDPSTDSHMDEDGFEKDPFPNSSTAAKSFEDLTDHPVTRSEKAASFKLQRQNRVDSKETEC
Chain of 92 kDa gelatinase (MMP-9) (P14780 107-707 limits assumed): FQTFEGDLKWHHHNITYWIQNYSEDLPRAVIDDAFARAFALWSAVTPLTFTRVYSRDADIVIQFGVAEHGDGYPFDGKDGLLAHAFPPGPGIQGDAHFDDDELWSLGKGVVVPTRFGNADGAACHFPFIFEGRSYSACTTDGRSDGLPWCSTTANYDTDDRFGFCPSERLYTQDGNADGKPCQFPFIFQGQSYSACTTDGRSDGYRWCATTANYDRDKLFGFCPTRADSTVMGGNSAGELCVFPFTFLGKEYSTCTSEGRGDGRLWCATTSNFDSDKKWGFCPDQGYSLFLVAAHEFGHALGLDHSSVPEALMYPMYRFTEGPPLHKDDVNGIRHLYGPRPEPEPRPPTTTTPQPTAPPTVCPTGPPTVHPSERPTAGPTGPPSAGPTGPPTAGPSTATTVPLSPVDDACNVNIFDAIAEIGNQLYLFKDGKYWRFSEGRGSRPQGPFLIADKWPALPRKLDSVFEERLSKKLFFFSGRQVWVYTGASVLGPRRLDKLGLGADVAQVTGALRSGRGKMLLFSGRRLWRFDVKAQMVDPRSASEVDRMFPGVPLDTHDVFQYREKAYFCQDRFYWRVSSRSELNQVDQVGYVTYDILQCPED

For `CC(C)(C)C(CS(=O)(=O)N1CCc2ccc(Cl)cc2C1)N(O)C=O` (stereo not drawn) [Example 65, N-(1-{[(7-chloro-3,4-dihydroisoquinolin-2(1H)-yl)sulfonyl]methyl}-2,2-dimethylpropyl)-N-hydroxyformamide], the results for the inhibition at 5 µM (on MMP-14; in experiment [1]) were 50% and 13%, respectively. The compound further returned an IC50 on human ADAM17 (TACE) of 490 nM.
As for `O=CN(O)C(CS(=O)(=O)N1CCc2ccc(-c3ccsc3)cc2C1)C1CCCC1` (stereo not drawn) [Example 68, N-(1-cyclopentyl-2-{[7-(3-thienyl)-3,4-dihydroisoquinolin-2(1H)-yl]sulfonyl}ethyl)-N-hydroxyformamide], on MMP-14, the inhibition at 0.1 µM was -30% and the inhibition at 5 µM was 99%. The inhibition at 5 µM in experiment [1] is 31%. This compound also had a 50% inhibitory concentration (IC50) against human ADAM17 (TACE) of 268 nM.
On to `O=CN(O)C(CS(=O)(=O)N1CCc2ccc(-c3ccccc3)cc2C1)C1CCCC1` (stereo not drawn) [Example 69, N-{1-cyclopentyl-2-[(7-phenyl-3,4-dihydroisoquinolin-2(1H)-yl)sulfonyl]ethyl}-N-hydroxyformamide], for which the inhibition at 5 µM was found to be 63% at MMP-14 and 26% in experiment [1]. For the same compound, at human ADAM17 (TACE), inhibition was half-maximal at 606 nM (IC50).
Take `O=CN(O)C(CS(=O)(=O)N1CCc2ccc(-c3cccc(O)c3)cc2C1)C1CCCC1` (stereo not drawn) [Example 70, N-(1-cyclopentyl-2-{[7-(3-hydroxyphenyl)-3,4-dihydroisoquinolin-2(1H)-yl]sulfonyl}ethyl)-N-hydroxyformamide]: the figures for the inhibition at 5 µM (at MMP-14; in experiment [1]) were 27% and 3%, respectively. For the same compound, at human ADAM17 (TACE), the IC50 is more than 5000 nM.
Regarding `O=CN(O)C(CS(=O)(=O)N1Cc2ccccc2C1)C1CC1` (stereo not drawn) [Example 72, N-[1-cyclopropyl-2-(1,3-dihydro-2H-isoindol-2-ylsulfonyl)-ethyl]-N-hydroxyformamide], the inhibition at 5 µM is 63% on MMP-14 and 28% in experiment [1]. The IC50 on human ADAM17 (TACE) came out at 683 nM.
As to `O=CN(O)C(CS(=O)(=O)N1CCc2ccc(Cl)cc2C1)C1CC1` (stereo not drawn) [Example 73, N-{2-[(7-chloro-3,4-dihydroisoquinolin-2(1H)-yl)sulfonyl]-1-cyclopropylethyl}-N-hydroxyformamide], the inhibition at 5 µM came to 40% on MMP-14 and 5% in experiment [1]. At human ADAM17 (TACE), this compound came in with an IC50 of 88 nM.
As for `O=CN(O)C(CS(=O)(=O)N1CCc2cc(C(F)(F)F)ccc2C1)C1CC1` (stereo not drawn) [Example 74, N-(1-cyclopropyl-2-{[6-(trifluoromethyl)-3,4-dihydro-isoquinolin-2(1H)-yl]sulfonyl}ethyl)-N-hydroxyformamide], the inhibition at 5 µM on MMP-14 is 76%; in experiment [1] it was 32%. On human ADAM17 (TACE), this compound came in with an IC50 of more than 5000 nM.
Turning to `O=CN(O)C(CS(=O)(=O)N1CCc2ccc(-c3ccc(F)cc3)cc2C1)C1CC1` (stereo not drawn) [Example 75, N-(1-cyclopropyl-2-{[7-(4-fluorophenyl)-3,4-dihydro-isoquinolin-2(1H)-yl]sulfonyl}ethyl)-N-hydroxyformamide], on MMP-14, the inhibition at 0.1 µM was determined as 11% and the inhibition at 5 µM was determined as 92%. Further, the inhibition at 5 µM in experiment [1] was determined as 71%. On human ADAM17 (TACE), the IC50 amounted to 394 nM.
Turning to `O=CN(O)C(CCC(F)(F)F)CS(=O)(=O)N1CCc2ccc(Cl)cc2C1` (stereo not drawn) [Example 76, N-(1-{[(7-chloro-3,4-dihydroisoquinolin-2(1H)-yl)-sulfonyl]methyl}-4,4,4-trifluorobutyl)-N-hydroxyformamide], the results for the inhibition at 5 µM (at MMP-14; in experiment [1]) were 59% and 14%, respectively. This compound showed a 50% inhibitory concentration (IC50) at human ADAM17 (TACE) of 115 nM.
Turning to `O=CN(O)C(CS(=O)(=O)N1CCc2cc(Cl)c(Cl)cc2C1)C1CCCC1` (stereo not drawn) [Example 77, N-{1-cyclopentyl-2-[(6,7-dichloro-3,4-dihydroisoquinolin-2(1H)-yl)sulfonyl]ethyl}-N-hydroxyformamide], the inhibition at 5 µM at MMP-14 stood at 78%; in experiment [1], 35%. For the same compound, half-maximal inhibition at human ADAM17 (TACE) (IC50) was put at 229 nM.
As to `O=CN(O)C(CS(=O)(=O)N1CCc2ccc(-c3ccncc3)cc2C1)C1CCCC1` (stereo not drawn) [Example 79, N-{1-cyclopentyl-2-[(7-pyridin-4-yl-3,4-dihydroisoquinolin-2(1H)-yl)sulfonyl]ethyl}-N-hydroxyformamide], at MMP-14, the inhibition at 0.1 µM was found to be 19%. Further, the inhibition at 5 µM on MMP-14 is 72%; in experiment [1], 57%. Further, the 50% inhibitory concentration (IC50) against human ADAM17 (TACE) turned out to be 587 nM.
On to `O=CN(O)C(CS(=O)(=O)N1Cc2ccc(F)cc2C1)C1CCCC1` (stereo not drawn) [Example 80, N-{1-cyclopentyl-2-[(5-fluoro-1,3-dihydro-2H-isoindol-2-yl)sulfonyl]ethyl}-N-hydroxyformamide], for which the inhibition at 5 µM was 15% at MMP-14 and 0% in experiment [1]. This compound also displayed an IC50 at human ADAM17 (TACE) of more than 5000 nM.
As to `CC(C)c1ccc2c(c1)CCN(S(=O)(=O)CC(C1CCCC1)N(O)C=O)C2` (stereo not drawn) [Example 81, N-{1-cyclopentyl-2-[(6-isopropyl-3,4-dihydroisoquinolin-2(1H)-yl)sulfonyl]ethyl}-N-hydroxyformamide], on MMP-14, the inhibition at 0.1 µM was determined as 0%. Further, the inhibition at 5 µM at MMP-14 came to 87%; in experiment [1], 44%. In addition, the IC50 against human ADAM17 (TACE) is more than 5000 nM.
Turning to `O=CN(O)C(CS(=O)(=O)N1CCc2ccc(C(F)(F)F)cc2C1)C1CCCC1` (stereo not drawn) [Example 82, N-(1-cyclopentyl-2-{[7-(trifluoromethyl)-3,4-dihydro-isoquinolin-2(1H)-yl]sulfonyl}ethyl)-N-hydroxyformamide], the results for the inhibition at 5 µM (on MMP-14; in experiment [1]) were 20% and 0%, respectively. Further, the IC50 on human ADAM17 (TACE) was more than 5000 nM.
As to `O=CN(O)C(CS(=O)(=O)N1CCc2ccc(C(F)(F)F)cc2C1)C1CC1` (stereo not drawn) [Example 83, N-(1-cyclopropyl-2-{[7-(trifluoromethyl)-3,4-dihydroisoquinolin-2(1H)-yl]sulfonyl}ethyl)-N-hydroxyformamide], the values for the inhibition at 5 µM (on MMP-14; in experiment [1]) were 6% and 4%, respectively. On human ADAM17 (TACE), this compound came in with a half-inhibitory concentration (IC50) of more than 5000 nM.
In the case of `CC(C)c1ccc2c(c1)CCN(S(=O)(=O)CC(C1CC1)N(O)C=O)C2` (stereo not drawn) [Example 85, N-{1-cyclopropyl-2-[(6-isopropyl-3,4-dihydroisoquinolin-2(1H)-yl)sulfonyl]ethyl}-N-hydroxyformamide], on MMP-14, the inhibition at 0.1 µM is 14% and the inhibition at 5 µM stood at 95%. The inhibition at 5 µM in experiment [1] turned out to be 28%. The compound further had an IC50 against human ADAM17 (TACE) of more than 5000 nM.
Turning to `O=CN(O)C(CCc1cccnc1)CS(=O)(=O)N1CCc2ccc(Cl)cc2C1` (stereo not drawn) [Example 86, N-(1-{[(7-chloro-3,4-dihydroisoquinolin-2(1H)-yl)sulfonyl]methyl}-3-pyridin-3-ylpropyl)-N-hydroxyformamide], on MMP-14, the inhibition at 0.1 µM was 12%. Besides, the inhibition at 5 µM was found to be 100% on MMP-14 and 52% in experiment [1]. In addition, the IC50 on human ADAM17 (TACE) is 59 nM.

Usually inhibition stands for the change of the read-out against control, counted positive when it falls. In general, IC50 refers to the point on the concentration scale where inhibition reaches its midpoint. Lower therefore signals higher potency.
